# Measurements reported in ChEMBL document CHEMBL5247574, “Recent Progress on Bile Acid Receptor Modulators for Treatment of Metabolic Diseases” (J Med Chem, 2016).
# Tests used:
# Bile acid receptor [1] = biological target: T1, Bile acid receptor (Homo sapiens, UniProt Q96RI1); assay: Antagonist activity at FXR (unknown origin) by HTFR assay
# T1 sequence (Q96RI1 whole entry): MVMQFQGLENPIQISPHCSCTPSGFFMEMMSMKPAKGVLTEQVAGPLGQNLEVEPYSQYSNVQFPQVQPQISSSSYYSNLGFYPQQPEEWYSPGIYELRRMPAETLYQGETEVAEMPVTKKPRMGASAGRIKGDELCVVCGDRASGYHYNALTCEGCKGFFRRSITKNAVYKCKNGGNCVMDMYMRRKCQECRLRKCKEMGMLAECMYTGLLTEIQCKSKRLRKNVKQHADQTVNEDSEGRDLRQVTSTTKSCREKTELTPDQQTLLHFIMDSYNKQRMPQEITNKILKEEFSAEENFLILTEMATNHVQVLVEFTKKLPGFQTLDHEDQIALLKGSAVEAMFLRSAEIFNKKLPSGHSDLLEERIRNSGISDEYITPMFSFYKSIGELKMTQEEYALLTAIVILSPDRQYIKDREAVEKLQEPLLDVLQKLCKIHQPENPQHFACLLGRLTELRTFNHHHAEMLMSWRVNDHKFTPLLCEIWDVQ
# Bile acid receptor [2] = biological target: T1, Bile acid receptor; assay: Antagonist activity at FXR in human HepG2 cells; format: cell-based
# [3] = In vivo agonist activity at TGR5 in streptozotocin-induced diabetic hamster model assessed as increase in HDL/LDL ratio at 20 mg/kg, po bid administered for 2 weeks by oral glucose tolerance test relative to control
# [4] = In vivo agonist activity at TGR5 in streptozotocin-induced diabetic hamster model assessed as decrease in plasma triglyceride at 20 mg/kg, po bid administered for 2 weeks by oral glucose tolerance test relative to control; format: functional, Cricetulus griseus; parameters: scale not given: the % may be the effect or the level left
# [5] = In vivo agonist activity at TGR5 in streptozotocin-induced diabetic hamster model assessed as increase in insulin secretion at 20 mg/kg, po bid administered for 2 weeks by oral glucose tolerance test relative to control; format: functional, Cricetulus griseus
# [6] = In vivo agonist activity at TGR5 in streptozotocin-induced diabetic hamster model assessed as reduction in glucose excursion at 38 mg/kg, po by oral glucose tolerance test relative to control; format: functional, Cricetulus griseus; parameters: scale not given: the % may be the effect or the level left
# [7] = In vivo agonist activity at TGR5 in streptozotocin-induced diabetic hamster model assessed as decrease in LDL level at 20 mg/kg, po bid administered for 2 weeks by oral glucose tolerance test relative to control; parameters: scale not given: the % may be the effect or the level left; conditions: Cricetulus griseus
# [8] = biological target: T2, G-protein coupled bile acid receptor 1 (Homo sapiens) (UniProt Q8TDU6); assay: Agonist activity at human TGR5 transfected in human NCI-H716 cells assessed as fold increase in GLP-1 secretion; format: cell-based; conditions: filed as agonist
# T2 sequence (whole entry): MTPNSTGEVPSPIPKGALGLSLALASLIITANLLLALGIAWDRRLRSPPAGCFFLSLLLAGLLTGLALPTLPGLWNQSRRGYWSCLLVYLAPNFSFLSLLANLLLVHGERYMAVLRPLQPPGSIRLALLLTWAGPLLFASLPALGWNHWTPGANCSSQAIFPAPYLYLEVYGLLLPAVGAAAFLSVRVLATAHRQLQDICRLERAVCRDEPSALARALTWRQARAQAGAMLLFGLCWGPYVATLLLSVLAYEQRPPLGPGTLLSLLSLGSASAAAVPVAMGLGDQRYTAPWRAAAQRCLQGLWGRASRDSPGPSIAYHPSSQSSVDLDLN
# [9] = In vivo agonist activity at TGR5 in streptozotocin-induced diabetic hamster model assessed as increase in HDL level at 20 mg/kg, po bid administered for 2 weeks by oral glucose tolerance test relative to control; format: functional, Cricetulus griseus
# [10] = In vivo agonist activity at TGR5 in streptozotocin-induced diabetic hamster model assessed as decrease in non-HDL level at 20 mg/kg, po bid administered for 2 weeks by oral glucose tolerance test relative to control; parameters: scale not given: the % may be the effect or the level left; conditions: Cricetulus griseus
# [11] = In vivo agonist activity at TGR5 in streptozotocin-induced diabetic hamster model assessed as reduction in body weight at 20 mg/kg, po bid administered for 2 weeks by oral glucose tolerance test relative to control; format: functional, Cricetulus griseus; parameters: scale not given: the % may be the effect or the level left
# [12] = In vivo agonist activity at TGR5 in streptozotocin-induced diabetic hamster model assessed as increase in oxygen consumption at 20 mg/kg, po bid administered for 2 weeks by oral glucose tolerance test relative to control; format: functional, Cricetulus griseus
# Bile acid receptor [13] = biological target: T1, Bile acid receptor; assay: Agonist activity at human FXR expressed in Escherichia coli BL21 (DE3) assessed as effect on europium labeled SRC-1 peptide recruitment by HTRF assay
# Bile acid receptor [14] = biological target: T1, Bile acid receptor; assay: Agonist activity at GAL4-fused N-terminal GST tagged human FXR LBD expressed in human HEK293 cells by one hybrid reporter assay; format: cell-based
# [15] = Toxicity in DIO mouse assessed as plasma triglycerides at 30 mg/kg per day administered for 4 weeks; format: organism-based; conditions: in vivo, 672 h
# [16] = Toxicity in DIO mouse assessed as reduction in total cholesterol level at 30 mg/kg per day administered for 4 weeks; format: organism-based; parameters: scale not given: the % may be the effect or the level left; conditions: in vivo, 672 h
# [17] = biological target: T3, G-protein coupled bile acid receptor 1 (Homo sapiens, UniProt Q8TDU6); assay: Agonist activity at TGR5 in human T-lymphocyte cells assessed as increase in cAMP production; format: cell-based
# T3 sequence (Q8TDU6 whole entry): T2 sequence (whole entry)
# [18] = biological target: T3, G-protein coupled bile acid receptor 1; assay: Agonist activity at TGR5 in human HEK293 cells incubated for 30 mins; format: cell-based
# [19] = Permeability of compound by PAMPA assay; format: ADME
# Bile acid receptor [20] = biological target: T1, Bile acid receptor; assay: Agonist activity at FXR (unknown origin) by FRET assay
compound,measurement,setting,value
O=C(O)c1ccccc1-c1ccc(Cn2ccc(OCc3c(-c4ccccc4Cl)noc3-c3cccs3)n2)cc1,IC50,Bile acid receptor [1],10 µM
same,IC50,Bile acid receptor [2],12.2 µM
CN(C(=O)c1c(-c2ccc(F)cc2)nc2ncccn12)c1ccc(Cl)cc1,Activity,[3],24%
same,Activity,[4],43%
same,Activity,[5],80%
same,Activity,[6],39%
same,Activity,[7],14%
same,fold change (FC),[8],3.7
same,Activity,[9],7%
same,Activity,[10],24%
same,Activity,[11],5.2%
same,Activity,[12],7.9%
CC(C)c1onc(-c2c(Cl)cccc2Cl)c1COc1ccc2c(ccn2Cc2ccc(-c3nnn[nH]3)cc2)c1,EC50,Bile acid receptor [13],< 0.1 µM
O=C(O)c1ccc(C2CC2c2ccc(OCc3c(-c4c(Cl)cccc4Cl)noc3C3CC3)cc2Cl)cc1 (stereo unspecified),EC50,Bile acid receptor [14],0.01 µM
same,Activity,[15],50%
same,Activity,[16],70%
CS(=O)(=O)c1ccc(CC2CCC(c3c(C(=O)N4CCC(c5ccc(F)cc5)C4)cnn3-c3ccc(F)cc3)CC2)cc1 (stereo unspecified),EC50,[17],0.007 µM
COc1ccc(Cc2nnc(SCc3c(F)cccc3Cl)n2-c2ccc(F)cc2F)cc1OC,EC50,[18],< 0.1 µM
CC(C)n1nc(C(=O)O)cc1[C@H]1C[C@](O)(c2ccc(OCc3c(-c4c(Cl)cccc4Cl)noc3C3CC3)cc2Cl)C1,permeability,[19],46.1%
same,EC50,Bile acid receptor [20],< 0.025 µM
same,EC50,Bile acid receptor [14],0.01 µM
